The nature of data set [1]: Induction of hemolysis in rat RBC assessed as hemoglobin release at 128 ug/ml after 1 hr by microplate reader analysis. It is filed as cell-based, Erythrocyte. The following applies: red blood cells, read-out: Activity.
In data set [2] the test system is Staphylococcus aureus. Description: Antibacterial activity against Methicillin-resistant Staphylococcus aureus assessed as growth inhibition after 24 hrs by double dilution method. It is filed as functional.
Data set [3] has as its system Shigella sonnei. As to the kind of experiment: Antibacterial activity against O-antigen positive Shigella sonnei clinical isolate 6831 assessed as growth inhibition after 24 hrs by double dilution method. It is filed as functional. Conditions: isolate 6831, 24 h.
Data set [4] concerns Shigella sonnei. Description: Antibacterial activity against O-antigen negative Shigella sonnei clinical isolate 6831 assessed as growth inhibition after 24 hrs by double dilution method. It is filed as functional. Conditions: isolate 6831, 24 h.
Data set [5] has as its system Streptococcus mutans. As to the kind of experiment: Antibacterial activity against Streptococcus mutans UA159 assessed as biofilm growth inhibition after 24 hrs by double dilution method. It is filed as functional.
The subject of data set [6] is Staphylococcus epidermidis. As to the kind of experiment: Antibacterial activity against Staphylococcus epidermidis ATCC 12228 assessed as growth inhibition after 24 hrs by double dilution method. It is filed as functional. Conditions: ATCC 12228, 24 h.
Data set [7] deals with Streptococcus mutans. Description: Antibacterial activity against Streptococcus mutans UA159 assessed as growth inhibition after 24 hrs by double dilution method. In kind it is functional. The following applies: UA159, 24 h.
A short description of data set [8]: Antibacterial activity against Streptococcus pyogenes serotype M12 strain MGAS9429 assessed as growth inhibition after 24 hrs by double dilution method. In kind it is functional. The following applies: MGAS9429, 24 h.
Data set [9] concerns Enterococcus. As to the kind of experiment: Antibacterial activity against vancomycin-resistant Enterococcus assessed as growth inhibition after 24 hrs by double dilution method. It is filed as functional.
Data set [10] deals with Enterococcus faecalis. Description: Antibacterial activity against Enterococcus faecalis ATCC 29212 assessed as growth inhibition after 24 hrs by double dilution method. The following applies: ATCC 29212, 24 h. In kind it is functional.
Data set [11] relates to Staphylococcus epidermidis. Description: Antibacterial activity against Staphylococcus epidermidis ATCC 35984 assessed as growth inhibition after 24 hrs by double dilution method. In kind it is functional. The following applies: ATCC 35984, 24 h.
Data set [12] has as its system Pseudomonas aeruginosa. As to the kind of experiment: Antibacterial activity against Pseudomonas aeruginosa ATCC 33347 assessed as growth inhibition after 24 hrs by double dilution method. It is filed as functional. The following applies: ATCC 33347, 24 h.
For data set [13], the system named is Staphylococcus epidermidis. As to the kind of experiment: Antibacterial activity against Staphylococcus epidermidis ATCC 35984 assessed as biofilm growth inhibition after 24 hrs by double dilution method. In kind it is functional.
Data set [14] concerns Staphylococcus aureus. Description: Antibacterial activity against Staphylococcus aureus ATCC 9144 assessed as growth inhibition after 24 hrs by double dilution method. It is filed as functional. The following applies: ATCC 9144, 24 h.
A short description of data set [15]: Induction of hemolysis in rat RBC assessed as hemoglobin release at 64 ug/ml after 1 hr by microplate reader analysis. Conditions: red blood cells, read-out: Activity. In kind it is cell-based, Erythrocyte.
The nature of data set [16]: Induction of hemolysis in rat RBC assessed as hemoglobin release at 32 to 128 ug/ml after 1 hr by microplate reader analysis. It is filed as cell-based. Conditions: erythrocyte.

≈ marks a conversion by molar mass, not a printed value.

Take `CCCCCCCCCCCCSC[C@H]1O[C@H](O[C@@H]2[C@@H](O)[C@H](O[C@H]3O[C@H](CN)[C@@H](O)C[C@H]3N)[C@@H](N)C[C@H]2N)[C@H](O)[C@@H](N)[C@@H]1O`: in data set [1], the hemolysis at 1 h, 128 ug/ml stood at 71.6%. Also, the MIC – broadly, the lowest concentration found to suppress growth – was 64 mg/L (≈ 98.2 µM) in data set [2]; 32 mg/L (≈ 49.1 µM) in [3]; 64 mg/L (≈ 98.2 µM) in data set [4]; 8 mg/L (≈ 12.3 µM) in data set [6]; 8 mg/L (≈ 12.3 µM) in data set [7]; 8 mg/L (≈ 12.3 µM) in data set [8]. For the same compound, the MIC in data set [9] was found to be 64 mg/L (≈ 98.2 µM); in [10] it was 128 mg/L (≈ 196 µM); in [11], 8 mg/L (≈ 12.3 µM); in data set [12] it was 128 mg/L (≈ 196 µM); in data set [14], 16 mg/L (≈ 24.5 µM). Besides, the MBIC in data set [5] was determined as 4 µg/mL; in [13] it was 16 µg/mL.
With `CCCCCCCCCCCCc1cn(C[C@H]2O[C@H](O[C@@H]3[C@@H](O)[C@H](O[C@H]4O[C@H](CN)[C@@H](O)C[C@H]4N)[C@@H](N)C[C@H]3N)[C@H](O)[C@@H](N)[C@@H]2O)nn1`, the hemolysis at 1 h, 128 ug/ml in data set [1] amounted to 89.1%. Further, the MIC in data set [2] is 128 mg/L (≈ 186 µM); in [3], 64 mg/L (≈ 93.2 µM); in data set [4], 64 mg/L (≈ 93.2 µM); in data set [6], 16 mg/L (≈ 23.3 µM); in data set [7] it was 4 mg/L (≈ 5.82 µM); in data set [8], 8 mg/L (≈ 11.6 µM). Moreover, the MIC is 32 mg/L (≈ 46.6 µM) in data set [9]; 128 mg/L (≈ 186 µM) in data set [10]; 8 mg/L (≈ 11.6 µM) in data set [11]; 64 mg/L (≈ 93.2 µM) in data set [12]; 16 mg/L (≈ 23.3 µM) in [14]. Further, the values for the MBIC in data set [5] and in data set [13] were 4 µg/mL and 16 µg/mL, respectively. In addition, in data set [15], the hemolysis at 1 h, 64 ug/ml worked out at 26.3%.
Consider `CCCCCCCCCCCCS(=O)(=O)C[C@H]1O[C@H](O[C@@H]2[C@@H](O)[C@H](O[C@H]3O[C@H](CN)[C@@H](O)C[C@H]3N)[C@@H](N)C[C@H]2N)[C@H](O)[C@@H](N)[C@@H]1O`, for which the MIC was > 128 mg/L in data set [2]; > 128 mg/L in data set [3]; > 128 mg/L in [4]; 128 mg/L (≈ 187 µM) in [6]; 16 mg/L (≈ 23.4 µM) in data set [7]; 32 mg/L (≈ 46.8 µM) in [8]. Further, the MIC was 64 mg/L (≈ 93.6 µM) in data set [9]; > 128 mg/L in data set [10]; 64 mg/L (≈ 93.6 µM) in [11]; > 128 mg/L in data set [12]; 64 mg/L (≈ 93.6 µM) in data set [14]. The MBIC in data set [5] was found to be 16 µg/mL; in [13], 32 µg/mL. Further, the Activity result in data set [16] is reported as “Toxic”.
In the case of `CCCCCCCCCCCCC(=O)NC[C@H]1O[C@H](O[C@@H]2[C@@H](O)[C@H](O[C@H]3O[C@H](CN)[C@@H](O)C[C@H]3N)[C@@H](N)C[C@H]2N)[C@H](O)[C@@H](N)[C@@H]1O`, the hemolysis at 1 h, 128 ug/ml in data set [1] was determined as 10.2%. Besides, the MIC in [2] stood at 128 mg/L (≈ 193 µM); in data set [3] it was 128 mg/L (≈ 193 µM); in [4] it was 128 mg/L (≈ 193 µM); in data set [6], 8 mg/L (≈ 12.1 µM); in data set [7] it was 4 mg/L (≈ 6.03 µM); in [8], 16 mg/L (≈ 24.1 µM). Besides, the minimal inhibitory concentration (MIC) in data set [9] turned out to be 64 mg/L (≈ 96.5 µM); in [10], 128 mg/L (≈ 193 µM); in data set [11], 8 mg/L (≈ 12.1 µM); in data set [12], 32 mg/L (≈ 48.3 µM); in [14] it was 16 mg/L (≈ 24.1 µM). Moreover, the MBIC in data set [5] and in data set [13] was 8 µg/mL throughout. For the same compound, the hemolysis at 1 h, 64 ug/ml in data set [15] stood at 0%.
